This is an account of results in paper PMC5437200, “Ionic liquids for the passive sampling of sulfonamides from water—applicability and selectivity study” (Analytical and Bioanalytical Chemistry, 2017).

Data set [1] in a line: ionization degrees of sulfonamides in the donor solution (calculated). The format is physicochemical. As to conditions: initial pH 5.64; calculated using equations in ref 39.
A short description of data set [2]: octanol-water shake experiment for logKOW and logDOW. The format is physicochemical. As to conditions: for logD: n-octanol/ultrapure water pH 5.6, room temperature, read-out: LogD OW pH 5.6 (exp); for LogK OW (exp): n-octanol/ultrapure water, room temperature.
Details of data set [3]: method as in PMID 22579461. As to conditions: cited from earlier work.
Data set [4] in a line: stability (recovery) of ionic liquids inside the PASSIL dosimeter. The format is physicochemical. As to conditions: PES membranes, 14-day passive sampling, 20 °C; from IL mass before and after. How it is done:
Passive sampling experiments were conducted analogously to previous studies. The passive dosimeter was made of plexiglass and contained two polyethersulfone (PES) membranes with their inner sides covered with the receiving phase—ionic liquid (separately for each of the seven tested ILs) of a total mass equal to 200 mg. Nylon (Phenomenex) and Teflon (Merck) membranes were also tested. The donor phase was 100 mL of water solution with an initial sulfonamide concentration of 2 μg mL^−1. The experimental setup was kept away from light radiation and at a constant temperature (20 °C). Each extraction lasted 14 days and the samples (1 mL) of the donor solution were collected every 2 days. The solution was stirred using a magnetic stirrer (1000 rpm), which was not renewed. After the experiment, the receiving phase was dissolved using 50 mL of acetonitrile. All the obtained samples (both from the donor and receiving phases) were analyzed by HPLC with a diode-array detector (DAD, Schimadzu, 272 nm). The analysis was performed using a Gemini 5-μm C18 column (Phenomenex). The injection volume was 10 μL. The flow rate was 1.5 mL min^−1. Acetonitrile (ACN) was used as the organic component of the mobile phase, and the aqueous component was an acetate buffer (5 mmol L^−1 CH3COONH4, pH = 4) with 5% of ACN. The mobile phase gradient was applied. The recovery of the receiving phase, the extraction efficiency, and the sampling rate (for [P666-14][N(CN)2]) were calculated for each analyte according to the equations presented in [30]. Moreover, micrographs using a HITACHI S-3400N scanning electron microscope (SEM) were taken to study the morphological appearance of the membranes covered with an ionic liquid [P666-14][N(CN)2].
The basic parameter of an applied ionic liquid is its physical stability inside the homemade dosimeter expressed by the IL recovery (%) calculated from the difference between ionic liquid masses before and after the passive sampling. The highest recovery (more than 90%) of ionic liquids was achieved by phosphonium-cation-based ILs and PES membranes (Fig. 3). […]

With `Nc1ccc(S(=O)(=O)Nc2ccc(Cl)nn2)cc1` [SCP, sulfachloropyridazine], in data set [1], the α2 ionization degree was 100.0% and the “α3 ionization degree (negatively charged form)” value (“α3 ionization degree” below) is given as 58.0%. In data set [2], the logD (commonly lipophilicity at a set pH, counting ionised and neutral species) is 0; the “LogK OW (exp)” value was 0.36. Besides, in data set [3], the pKa2 is recorded as 2.2 and the pKa3 is given as 5.5.

In the case of `COc1cc(NS(=O)(=O)c2ccc(N)cc2)nc(OC)n1` [SDX, sulfadimethoxine], in data set [1], the α2 ionization degree is 99.9% and the “α3 ionization degree” value is reported as 35.5%. Besides, in data set [3], the pKa2 was 2.5 and the pKa3 is reported as 5.9.

For the compound `Nc1ccc(S(=O)(=O)Nc2ncccn2)cc1` [SDZ, sulfadiazine], the pKa2 in data set [3] was 1.8.

Turning to `Cc1nnc(NS(=O)(=O)c2ccc(N)cc2)s1` [SMT, sulfamethiazole], in data set [1], the α2 ionization degree is recorded as 100.0% and the “α3 ionization degree” value was 58.0%. Further, in data set [2], the pH-dependent lipophilicity (logD) is -0.34 and the “LogK OW (exp)” value is recorded as 0.01. For the same compound, in data set [3], the pKa2 is listed as 1.8 and the pKa3 was 5.5.

Turning to `Cc1ccnc(NS(=O)(=O)c2ccc(N)cc2)n1` [SMZ, sulfamerazine], in data set [1], the α2 ionization degree was 100.0% and the “α3 ionization degree” value is on record as 6.5%. For the same compound, in data set [2], the logD amounted to 0.16 and the “LogK OW (exp)” value came to 0.19. In data set [3], the pKa2 was 1.8 and the pKa3 is listed as 6.8.

Take `Nc1ccc(S(=O)(=O)Nc2ccccn2)cc1` [SPD, sulfapyridine]: in data set [1], the α2 ionization degree is listed as 99.9%. Also, in data set [2], the log distribution coefficient (logD) amounted to 0.04 and the “LogK OW (exp)” value was 0.04. Moreover, in data set [3], the pKa2 is given as 2.4 and the pKa3 is 8.2.

On to `Nc1ccc(S(=O)(=O)Nc2nccs2)cc1` [STZ, sulfathiazole], for which, in data set [1], the α2 ionization degree is 100.0% and the “α3 ionization degree” value was 3.4%. For the same compound, in data set [2], the logD was -0.17 and the “LogK OW (exp)” value is recorded as −0.16. For the same compound, in data set [3], the pKa2 is on record as 2.1 and the pKa3 was 7.1.

In turn, `CCCCCCCCCCCCCC[P+](CCCCCC)(CCCCCC)CCCCCC.FC(F)(F)C(F)(F)[P-](F)(F)(F)(C(F)(F)C(F)(F)F)C(F)(F)C(F)(F)F` [[P666-14][(C2F5)3PF3], trihexyl(tetradecyl)phosphonium tri(pentafluoroethyl)trifluorophosphate] had an IL recovery in data set [4] of 98.5%.

`CCCCCCCCCCCCCC[P+](CCCCCC)(CCCCCC)CCCCCC.N#C[N-]C#N` [[P666-14][N(CN)2], trihexyl(tetradecyl)phosphonium dicyanamide] returned an IL recovery in data set [4] of 92.4%.

For `CCCCCCCCCCCCCC[P+](CCCCCC)(CCCCCC)CCCCCC.O=S(=O)([N-]S(=O)(=O)C(F)(F)F)C(F)(F)F` [[P666-14][TFN], trihexyl(tetradecyl)phosphonium bis(trifluoromethylsulfonyl)imide], the IL recovery in data set [4] was 98.9%.
